What was measured:
gram-positive bacteria = conditions: cited from earlier work
Pancreatic CCK Receptor = target: T1, Pancreatic CCK Receptor (Rattus norvegicus, UniProt P30551); assay: Pancreatic Cholecystokinin Receptor Binding Assay (125I-CCK-8); conditions: added as protease inhibitors
T1 construct: Pancreatic receptor membranes were prepared by homogenzing a gram of fresh rat pancreas tissue; from tissue; host or cells: rat pancreas membranes
T1 sequence (P30551 1-444): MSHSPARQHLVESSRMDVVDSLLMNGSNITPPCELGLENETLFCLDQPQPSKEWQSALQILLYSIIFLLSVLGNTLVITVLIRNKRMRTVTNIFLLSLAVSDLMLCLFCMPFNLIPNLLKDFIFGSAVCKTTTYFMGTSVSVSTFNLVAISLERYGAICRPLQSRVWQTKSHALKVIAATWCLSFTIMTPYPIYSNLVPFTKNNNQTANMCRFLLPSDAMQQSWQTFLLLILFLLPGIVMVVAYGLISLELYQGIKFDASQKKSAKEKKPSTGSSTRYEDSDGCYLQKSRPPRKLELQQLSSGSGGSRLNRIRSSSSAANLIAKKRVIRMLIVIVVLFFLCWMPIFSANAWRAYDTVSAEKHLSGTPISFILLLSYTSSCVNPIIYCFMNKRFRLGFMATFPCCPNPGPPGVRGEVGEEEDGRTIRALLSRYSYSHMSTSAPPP
Procedure: Radiolabeled CCK-8 was purchased from New England Nullear as ^125 I-CCK-8. Receptor binding was performed according to Innis and Snyder Proc. Natl. Acad. Sci., 77, 6917 (1980), with the minor modification of adding the additional protease inhibitors, phenylmethane sulfonyl fluoride (PMSF) and o-phenanthroline, which have no effect on the ^125 I-CCK receptor binding assay. All assays were performed in triplicate. Pancreatic receptor membranes were prepared by homogenzing a gram of fresh rat pancreas tissue in 30 ml TRIS-HCl (50 mM), pH 7.7 using a Brinkman polytron PT10 (Brinkman). The homogenate was washed twice and collected by centrifugation at 48,000×g at 4° C. for 10 minutes. The membranes were resuspended in assay buffer consisting of 5 mM dithiothieitol, 0.1 mM bacitiacin, 5 mM MgCl2 ·H2 O, 0.2% heat denatured BSA, 1.2 mM PMSF and 0.5 mM O-phenanthroline at a concentration of 100 ml per gram of pancreas. […] The reaction mixtures were mixed briefly and placed in a 37° C. water bath with gentle shaking for 30 minutes. […] The filters were washed with 3×4 ml of the same buffer and the radioactivity associated with the filters was counted in a Beckman Gamma 5500 counter. […] The dried samples were then brought up in methanol/H2 O (1:1) and ready for assay.

[1] = vs CCK-33; cited from earlier work
gastric acid secretion = conditions: cited from earlier work

In the case of `CC1=C\[C@@H](O)CC(=O)Cc2nc(co2)C(=O)N2CCC=C2C(=O)O[C@H](C(C)C)[C@H](C)/C=C/C(=O)NC\C=C\1` [Virginiamycin M1], the antibacterial specificity (gram-positive bacteria) is given as “generally specific for gram-positive bacteria”.

For `c1cnc2c(c1)ccc1cccnc12` [o-phenanthroline], the “effect on the 125I-CCK receptor binding assay” value (Pancreatic CCK Receptor) was “no effect”.

With `O=S(=O)(F)Cc1ccccc1` [phenylmethane sulfonyl fluoride (PMSF), phenylmethane sulfonyl fluoride] the “effect on the 125I-CCK receptor binding assay” value (Pancreatic CCK Receptor) was “no effect”.

In the case of “C-terminal octapeptide: C-terminal octapeptide of CCK”, the “efficacy relative to CCK-33” value [1] is given as “same efficacy”.

For Gastrin-17, the “potency for stimulating gastric acid secretion relative to Gastrin-13” value (gastric acid secretion; vs Gastrin-13) is listed as 2.5 times more potent and the “potency for stimulating gastric acid secretion relative to Gastrin-34” value (gastric acid secretion; vs Gastrin-34) is listed as 5 times more potent.
